{
  "source": "patent EP1001774B1",
  "about": "“USE OF PHOSPHOLAMBAN INHIBITORS FOR INCREASING CORONARY FLOW” (ORION CORPORATION, priority 1997, dated 1999)",
  "key": {"phospholamban": {"target": "T1, phospholamban (Cavia porcellus, UniProt A0A286XLC6)", "T1 construct": "calcium uptake into the SR vesicles prepared from cardiac tissue; from tissue; host or cells: guinea-pig heart (ventricular myocardium), SR vesicle preparation", "T1 sequence (A0A286XLC6 1-52)": "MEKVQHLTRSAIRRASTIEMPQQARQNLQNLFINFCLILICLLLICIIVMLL", "assay": "Calcium uptake assay (fluo-3) in SR vesicles from cardiac tissue", "type": "biochemical, guinea-pig", "settings": "vesicles from ventricular myocardium, 0.1 µM free calcium, read-out: The stimulation (%) of Ca^2+ uptake A; for activation at 100 µM: 100 µM compound; for activation at 10 µM: 10 µM compound", "source_text": "(§1) The direct binding of a compound to the phospholamban protein can be ascertained by the circular dichroism (CD) spectroscopy. The methods for determining whether a compound relieves the inhibitory effect of phospholamban on SR Ca^2+-ATPase by direct binding to the phospholamban protein, i.e. is a phospholamban inhibitor, are illustrated in detail in the experimental section.\n(§2) The effect on phospholamban of the compounds used in the invention was verified by measuring its effects on calcium uptake into the SR vesicles prepared from cardiac tissue and into vesicles prepared from fast skeletal muscle (psoas m.). […] The methods are described below in detail.\n(§3) Guinea pigs (10-12) were decapited. Their hearts or the psoas muscles were excised, washed in ice-cold 0.9 % NaCl and cut into pieces in a buffer containing 20 mM Tris-maleate, 0.3 M sucrose, pH 7.0. Thereafter tissue pieces were homogenized with Polytron and further with Potter (10 strokes). The homogenate was centrifugated at 1000 g for 15 min at 4 °C. The supernatant was collected and the pellet was resuspended into 5 ml of the buffer (20 mM Tris-maleate, 0.3 M sucrose, pH 7.0) and recentrifugated at 1000 g for 10 min at 4 °C. The obtained supernatant was combined with the earlier collected supernatant and centrifugated once again at 10 000 g for 20 min at 4 °C. The final supernatant was filtered into a bottle equipped with a magnetic stirrer. KCl was added to the filtered supernatant to achieve the final concentration of 0.6 M (at 4 °C). The obtained solution was centrifugated at 100 000 g for 60 min at 4 °C. The pellet was suspended in 5 ml of the buffer containing 20 mM Tris-maleate, 0.3 M sucrose, pH 7.0 and centrifugated at 100 000 g for 60 min at 4 °C. The obtained pellet was suspended in 5 ml of buffer containing 20 mM Tris-maleate, 0.3 M sucrose, 0.1 M KCI, pH 7.0 and stored at -80 °C until use. The protein concentration was also measured in order to standardise the separately prepared vesicle preparations.\n(§4) In the calcium uptake assay, the fluorescent indicator, fluo-3 was used to detect the decrease of the extravesicular Ca^2+-concentration, when the SR Ca^2+ATPase was transferring Ca^2+ from the extravesicular space into the SR-vesicles.\n(§5) The SR-vesicles obtained above (50 µg protein/ml) were preincubated with or without the test compound at 37 °C for 5 min in the assay buffer containing 40 mM imidazole, 95 mM KCI, 5 mM NaN3, 5 mM MgCl2, 0.5 mM EGTA, 5 mM potassium oxalate, 2 µM ruthenium red, 5 µM fluo-3, pH 7.0. The free calcium was adjusted to 0.1 µM or to 0.04 µM by CaCl2. The reaction was initiated by adding ATP (5 mM). The final reaction volume was 1.5 ml. The fluorescence of reaction mixture was measured for 3 min by using the excitation and emission wavelengths of 510 nm and 530 nm, respectively."}, "coronary arteries": {"system": "coronary arteries", "assay": "Coronary flow in isolated paced heart (Langendorff, constant pressure)", "set-up": "species or system guinea-pig", "settings": "Cavia porcellus; for Emax at 10 µM / Emax at 3 µM / Emax at 30 µM: read-out: Maximum effect (% change from baseline) on the coronary flow; for EC50: isolated heart, constant pressure 50 mmHg, paced at 250 beats/min", "experimental": "Guinea-pigs of either sex weighing 300-400 g were used in the study. After the guinea-pig was sacrificed by a blow on the skull and decapitated the heart was rapidly excised. The heart was then rinsed in cold oxygenated perfusion buffer. A cannula was inserted into the aorta and secured with a ligature. Retrograde perfusion began as soon as the heart was placed in a thermostatically controlled moist chamber of the Langendorff apparatus. Modified Tyrode solution (37 °C), equilibrated in a thermostatically controlled bulb oxygenator with carbogen (95 % O2 and 5% CO2) was used as a perfusion buffer. The composition of the Tyrode solution was (in mM): NaCl 135; MgCl2 x 6H2O 1; KCl 5; CaCl2 x 2H2O 2; NaHCO3 15; Na2HPO4 x 2H2O 1; glucose 10; pH 7.3-7.4. The experiments were carried out under constant pressure condition (50 mmHg). After a short prestabilization (10 min) a latex balloon (size 4) was carefully placed into the left ventricle through the left pulmonary vein and the left atrium. The latex balloon was attached to a stainless-steel cannula coupled with a pressure transducer. The latex balloon, the cannula and the chamber of the pressure transducer were filled with ethylene glycol / water (1:1) mixture avoiding any air-bubble. The isovolumetric left ventricular pressure was recorded through the pressure transducer. The maximal positive and negative derivatives of the left ventricular pressure were calculated by using the digitized pressure signals. At the beginning of the experiment, the volume of the balloon was adjusted to obtain a diastolic pressure of approximately 5 mmHg. Coronary flow (ml/min) was continuously recorded by an electromagnetic flow meter with a flow probe inserted above the aortic cannula. The heart was paced at 250 beats/min with a coaxial electrode localized on the surface of the right atrium. Before starting the experiment, the heart was allowed to stabilise further for 30 - 50 min with vehicle (0.1% DMSO) to reach a stable coronary flow.\nAfter 15 min baseline recording various concentrations of the test compound of Example 1c were added to the perfusion buffer at 15 min intervals. The concentration range of 0.3 - 30 µM was tested. The vehicle concentration (0.1% DMSO) was kept constant throughout the experiment."}, "SR Ca^2+-ATPase": {"system": "SR Ca^2+-ATPase", "assay": "Calcium uptake assay (fluo-3) in SR vesicles from fast skeletal muscle (psoas m.), which contain no phospholamban", "type": "biochemical, guinea-pig", "settings": "vesicles from fast skeletal muscle, 0.04 µM free calcium", "source_text": "as §1, §2, §3, §4, §5"}},
  "data": [
    {"smiles": "Cc1c(Cc2ccccc2)c(=O)n(Cc2ccccc2)c2cc(OCC(=O)O)cc(OCC(=O)O)c12", "note": "[Example 12, 5,7-Bis(carboxymethoxy)-1,3-dibenzyl-4-methyl-2(1H)-quinolinone]", "values": [
      {"measurement": "activation at 100 µM", "setting": "phospholamban", "result": 32, "unit": "%"},
      {"measurement": "Emax at 10 µM", "setting": "coronary arteries", "result": 60, "unit": "%"},
      {"measurement": "EC50", "setting": "coronary arteries", "result": 5, "unit": "µM"}
    ]},
    {"smiles": "Cc1c(Cc2ccc(Cl)cc2)c(=O)oc2cc(OCc3nnn[nH]3)cc(OCc3nnn[nH]3)c12", "note": "[Example 14c, 5,7-Bis[(1H-tetrazol-5-yl)methoxy]-3-(4-chlorobenzyl)-4-methyl-2H-1-benzopyran-2-one]", "values": [
      {"measurement": "activation at 10 µM", "setting": "phospholamban", "result": 18, "unit": "%"},
      {"measurement": "Emax at 10 µM", "setting": "coronary arteries", "result": 112, "unit": "%"},
      {"measurement": "EC50", "setting": "coronary arteries", "result": 1.5, "unit": "µM"}
    ]},
    {"smiles": "Cc1c(Cc2ccccc2)c(=O)n(Cc2ccccc2)c2cc(OCC(N)=O)cc(OCC(N)=O)c12", "note": "[Example 21, 5,7-Bis(aminocarbonylmethoxy)-1,3-dibenzyl-4-methyl-2(1H)-quinolinone]", "values": [
      {"measurement": "activation at 100 µM", "setting": "phospholamban", "result": 11, "unit": "%"},
      {"measurement": "Emax at 10 µM", "setting": "coronary arteries", "result": 141, "unit": "%"},
      {"measurement": "EC50", "setting": "coronary arteries", "result": 2, "unit": "µM"}
    ]},
    {"smiles": "Cc1c(Cc2ccccc2)c(=O)oc2cc(OC(C)c3nnn[nH]3)cc(OC(C)c3nnn[nH]3)c12", "note": "(centres unmarked) [Example 11b, 3-Benzyl-5,7-bis[1-(1H-tetrazol-5-yl)ethoxy]4-methyl-2 H-1-benzopyran-2-one]", "values": [
      {"measurement": "activation at 100 µM", "setting": "phospholamban", "result": 28, "unit": "%"},
      {"measurement": "Emax at 3 µM", "setting": "coronary arteries", "result": 38, "unit": "%"},
      {"measurement": "EC50", "setting": "coronary arteries", "result": 1, "unit": "µM"}
    ]},
    {"smiles": "Cc1c(CCc2ccccc2)c(=O)oc2cc(OCc3nnn[nH]3)cc(OCc3nnn[nH]3)c12", "note": "[Example 7c, 5,7-Bis[(1H-tetrazol-5-yl)methoxy]-4-methyl-3-(2-phenylethyl)-2H-1benzopyran-2-one]", "values": [
      {"measurement": "activation at 100 µM", "setting": "phospholamban", "result": 5, "unit": "%"},
      {"measurement": "The stimulation (%) of Ca^2+ uptake B", "setting": "SR Ca^2+-ATPase; 100 µM compound", "result": -17, "unit": "%"}
    ]},
    {"smiles": "O=c1oc2cc(OCc3nnn[nH]3)cc(OCc3nnn[nH]3)c2c2c1C(c1ccccc1)CCC2", "note": "(centres unmarked) [Example 2c, 7,8,9,10-Tetrahydro-1,3-bis[(1H -tetrazol-5-yl)methoxy]-7-phenyl-6H-dibenzo[b,d]pyran-6-one]", "values": [
      {"measurement": "activation at 100 µM", "setting": "phospholamban", "result": 26, "unit": "%"},
      {"measurement": "The stimulation (%) of Ca^2+ uptake B", "setting": "SR Ca^2+-ATPase; 100 µM compound", "result": -1, "unit": "%"}
    ]},
    {"smiles": "Cc1c(Cc2ccccc2)c(=O)n(Cc2ccccc2)c2cc(OCc3nnn[nH]3)cc(OCc3nnn[nH]3)c12", "note": "[Example 8g, 5,7-Bis[(1H-tetrazol-5-yl)methoxy]-1,3-dibenzyl-4-methyl-2(1H)-quinolinone]", "values": [
      {"measurement": "activation at 10 µM", "setting": "phospholamban", "result": 18, "unit": "%"},
      {"measurement": "The stimulation (%) of Ca^2+ uptake B", "setting": "SR Ca^2+-ATPase; 10 µM compound", "result": 0, "unit": "%"},
      {"measurement": "Emax at 10 µM", "setting": "coronary arteries", "result": 100, "unit": "%"},
      {"measurement": "EC50", "setting": "coronary arteries", "result": 1, "unit": "µM"}
    ]},
    {"smiles": "O=c1cc(-c2ccccc2)c2c(OCc3nnn[nH]3)cc(OCc3nnn[nH]3)cc2o1", "note": "[Example 5c, 5,7-Bis[(1H-tetrazol-5-yl)methoxy]-4-phenyl-2H-1-benzopyran-2-one]", "values": [
      {"measurement": "Emax at 30 µM", "setting": "coronary arteries", "result": 52, "unit": "%"},
      {"measurement": "EC50", "setting": "coronary arteries", "result": "> 10", "unit": "µM"}
    ]},
    {"smiles": "Cc1c(Cc2ccccc2)c(=O)oc2cc(OCc3noc(=O)[nH]3)cc(OCc3noc(=O)[nH]3)c12", "note": "[Example 3c, 3-Benzyl-5,7-bis[(2,5-dihydro-5-oxo-4H-1,2,4-oxadiazol-3-yl)-methoxy]-4-methyl-2H-1-benzopyran-2-one]", "values": [
      {"measurement": "activation at 20 µM", "setting": "phospholamban; 20 µM compound", "result": 51, "unit": "%"},
      {"measurement": "The stimulation (%) of Ca^2+ uptake B", "setting": "SR Ca^2+-ATPase; 20 µM compound", "result": 0, "unit": "%"},
      {"measurement": "Emax at 30 µM", "setting": "coronary arteries", "result": 174, "unit": "%"},
      {"measurement": "EC50", "setting": "coronary arteries", "result": 5, "unit": "µM"}
    ]},
    {"smiles": "Cc1cc(=O)n(Cc2ccccc2)c2cc(OCc3nnn[nH]3)cc(OCc3nnn[nH]3)c12", "note": "[Example 18e, 1-Benzyl-5,7-bis-[(1H-tetrazol-5-yl)methoxy]-4-methyl-2(1H)-quinolinone]", "values": [
      {"measurement": "activation at 100 µM", "setting": "phospholamban", "result": 13, "unit": "%"},
      {"measurement": "Emax at 30 µM", "setting": "coronary arteries", "result": 69, "unit": "%"},
      {"measurement": "EC50", "setting": "coronary arteries", "result": 5, "unit": "µM"}
    ]},
    {"smiles": "Cc1c(Cc2ccccc2)c(=O)n(Cc2ccc(F)cc2)c2cc(OCc3nnn[nH]3)cc(OCc3nnn[nH]3)c12", "note": "[Example 13d]", "values": [
      {"measurement": "activation at 50 µM", "setting": "phospholamban; 50 µM compound", "result": 23, "unit": "%"},
      {"measurement": "Emax at 30 µM", "setting": "coronary arteries", "result": 104, "unit": "%"},
      {"measurement": "EC50", "setting": "coronary arteries", "result": 6, "unit": "µM"}
    ]},
    {"smiles": "Cc1c(Cc2ccccc2)c(=O)n(Cc2ccccc2)c2cc(OCC(=O)NO)cc(OCC(=O)NO)c12", "note": "[Example 23, 5,7-Bis(hydroxyaminocarbonylmethoxy)-1,3-dibenzyl-4-methyl-2(1H)-quinolinone]", "values": [
      {"measurement": "activation at 5 µM", "setting": "phospholamban; 5 µM compound", "result": 20, "unit": "%"},
      {"measurement": "Emax at 3 µM", "setting": "coronary arteries", "result": 55, "unit": "%"},
      {"measurement": "EC50", "setting": "coronary arteries", "result": 0.9, "unit": "µM"}
    ]}
  ]
}
